# From patent publication US9682970B2, “Fluorescent compounds and uses thereof” (BIOTIUM, INC., priority 2012, dated 2017)
# Tests used:
# calf thymus dsDNA = assay: Absorption and emission spectra of nucleic acid binding dyes; format: physicochemical
# Experimental: All absorption spectra were measured on a Beckman Coulter DU-800 spectrophotometer at room temperature. All fluorescence spectra were measured on a Hitachi F-4500 fluorescence spectrophotometer at room temperature. To record the complete emission profiles, excitation wavelengths were set 30 nm shorter than the absorption maxima of the dyes. The dsDNA used was calf thymus dsDNA from Sigma. When dsDNA was present in the dye solutions, spectra were recorded after the dyes had been incubated with the DNA for at least 10 minutes.
# [1] = test system: HeLa cells fixed in 4% paraformaldehyde; assay: Staining of fixed cells with Compound 36; format: cell-based; conditions: 10 uM in blocking buffer, 10 minutes, Cy3 channel
# Experimental: The high photostability and relatively long emission wavelength (˜565 nm) make the dye a useful cell counterstain. HeLa cells were plated on an 8-chambered Lab-Tek cover glass at 4×10^4 cells per chamber and cultured overnight. The day after plating, the cells were fixed in 4% paraformaldehyde/PBS for 15 minutes at room temperature. The cells were rinsed in PBS and blocked in PBS containing 5% normal goat serum and 0.1% Triton X-100 for 30 minutes at room temperature. Cells were stained with 10 uM Dye 36 in blocking buffer for 10 minutes at room temperature and imaged in the same solution by confocal microscopy in the Cy3 channel of a Zeiss LSM 700 confocal microscope.
# [2] = Photostability of the dye; format: physicochemical
# calf thymus DNA = assay: DNA quantitation in solution (fluorescence linearity)
# Experimental: compounds 5, 7 and related compounds according to the invention can be used to quantitate double-stranded DNA in solution with high sensitivity and accuracy over a wide range of DNA concentrations, as shown in FIGS. 4 and 5. […] At […] dye concentration, compound 5 fluorescence is linear from 0.04-250 ng (FIG. 5).
# The data shown in FIG. 4A was obtained under the following conditions: compound 7 at 0.5 μM was prepared in TE buffer (10 mM Tris, 1 mM EDTA, pH 7.5), and pipetted into wells of black 96-well plates at 200 μL per well. Two-fold dilutions of calf thymus DNA were prepared in TE buffer starting at 0.2 ng/uL, and 10 μL of each DNA dilution was added per 96 well to obtain a standard curve of 2 ng to 0.015 ng per well. The plates were incubated for five minutes at room temperature, protected from light, then read at 468 nm excitation and 507 nm emission using a Molecular Devices Gemini XS fluorescent plate reader. Triplicate samples were averaged and background fluorescence (no DNA) was subtracted. Fluorescence values were plotted against the DNA amount (ng/well). […] The R^2 values for linear regression are shown next to each curve. The data shown in FIG. 4B were obtained under similar condition except that compound 5 at 1 uM was used and serial DNA dilutions were from 250 ng to 0.04 ng.
# live HeLa cells = assay: Staining of live cells; format: cell-based; conditions: 10 uM, 30 minutes at 37 C
# Experimental: (§1) The images in the top panel of FIG. 6 were obtained under the following conditions: live HeLa cells were incubated with 10 uM compound 7, compound 8, or Dye 5 for 30 minutes at 37 C in a CO2 incubator. The images in the bottom panel of FIG. 6 were obtained under the following conditions: HeLa cells were formaldehyde-fixed, permeabilized, and blocked according to standard immunofluorescence staining protocols. Cell were stained with 10 μM compound 7, 8 or 5 in PBS/5% BSA for 30 minutes, then washed with PBS buffer and imaged. Live and fixed cells were imaged using an Olympus epifluorescence microscope equipped with a FITC filter set, Retiga 2000R Fast 1394 camera (QImaging), and Image-Pro Express software (Media Cybernetics).
# [3] = test system: HeLa cells formaldehyde-fixed, permeabilized; assay: Staining of fixed cells; format: cell-based; conditions: 10 μM in PBS/5% BSA, 30 minutes
# Experimental: as §1
# Jurkat cells = assay: Cell number quantitation in cell suspensions; format: cell-based; conditions: 10 uM final dye, 30 minutes at 37° C., 440,000 to 860 cells per well
# Experimental: The data in FIG. 7A were obtained under the following conditions: compound 5 or 7 at 20 uM in Hank's Balanced Salt Solution (HBSS) was pipetted into optical bottom black 96 well tissue culture plates at 50 μL per well. Two-fold serial dilutions of Jurkat cells in suspension culture were prepared in Hank's Balanced Salt Solution (HBSS) and pipetted into black 96 well plates at 50 μL per well to obtain a dilution curve of 440,000 to 860 cells per well, and a final dye concentration of 10 uM. Plates were incubated for 30 minutes at 37° C. in a 5% CO2 incubator, and fluorescence was read at 468/507 nm in a Molecular Devices Gemini XS fluorescent plate reader. Triplicate samples were averaged and background fluorescence (no cells) was subtracted. Fluorescence values were plotted against the DNA amount (ng/well). The R^2 values for linear regression are shown next to each curve. For comparison, cell numbers were quantitated using the CyQUANT NF Cell Proliferation Assay Kit (Life Technologies) according to the kit manual.
# adherent HeLa cells = assay: Cell number quantitation in adherent cell cultures; format: cell-based; conditions: 10 uM, 30 minutes at 37° C., 50,000 to 100 cells per well
# Experimental: The data in FIG. 7B was obtained under the following conditions: adherent HeLa cells were seeded at densities ranging between 50,000 and 100 cells per well in optical bottom black 96 well tissue culture plates and allowed to adhere overnight at 37° C. in a 5% CO2 incubator. On the day after seeding, the cells were washed with HBSS and incubated in HBSS containing Dye 5 or Dye 7 at 10 uM for 30 minutes at 37° C. Fluorescence was read at 468/507 nm in a Molecular Devices Gemini XS fluorescent plate reader. Triplicate samples were averaged and background fluorescence (no cells) was subtracted. Fluorescence values were plotted against the DNA amount (ng/well). The R^2 values for linear regression are shown next to each curve. For comparison, cell numbers were quantitated using the CyQUANT NF Cell Proliferation Assay Kit (Life Technologies according to the kit manual.
# [4] = test system: linearized GAPDH-containing plasmid DNA; assay: Real-time PCR with plasmid DNA; conditions: 0.34 uM dye, 5×10^5 copies plasmid
# Experimental: Compound 7 and related dyes can be used in real time PCR experiments to monitor amplification of target plasmid DNA. In FIG. 8, 5×10^5 copies of linearized GAPDH-containing plasmid DNA or water (non-template controls, NTC) were added to PCR reaction mixes containing 0.34 uM of either SYBR Green I (lines with solid diamonds (DNA) or “x's” (water)) or Compound 7 (lines with triangles (DNA) or circles (water)) and real time PCR was performed. […] The data in FIG. 8 were collected under the following conditions: PCR reactions consisted of a final concentration of 50 mM Tris-HCl (pH 8.6), 3 mM MgCl2, 50 μg/ml non-acetylated BSA (Sigma), 200 μM dNTPs (New England BioLabs), 500 nM GAPDH Forward primer ([NT]), 500 nM GAPDH Reverse primer ([NT]) (Integrated DNA Technologies), 1 U Hot-Start Cheetah Taq (Biotium, Inc.) and either 0.34 uM SYBR Green I (Life Technologies) or 0.34 uM compound 7. One microliter of 5×10^5 copies linearized pCMV-SPORT6 GAPDH plasmid (Open Biosystems) was added to each 20 ul reaction. Real time PCR was performed using the RotorGeneQ with the following cycling conditions: 95° C. for 2 minutes, followed by 45 cycles of 95° C. for 5 seconds and 60° C. for 30 seconds, with data acquisition during the elongation stage on the green channel.
# [5] = test system: GAPDH cDNA from Jurkat cell purified mRNA; assay: Real-time PCR with cDNA; conditions: 0.34 uM dye
# Experimental: Compound 7 and related dyes can be used in real time PCR experiments to monitor amplification of target cDNA. In FIG. 9, serial dilutions of total cDNA generated from Jurkat cell purified mRNA were added to PCR reaction mixes containing 0.34 uM compound 7 and real time PCR was performed.
# The data in FIG. 9 were collected under the following conditions: mRNA was purified from 4×10^6 Jurkat cells using Qiagen's RNeasy Kit and cDNA was then generated using oligo-dT primers and the ProtoScript First Strand cDNA Synthesis Kit (New England BioLabs). Serial 1:2 dilutions of the cDNA in water were prepared and added to PCR reactions consisting of a final concentration of 25 mM Tris-HCl (pH 8.6), 5 mM KCl, 10 mM (NH4)2SO4, 2 mM MgCl2, 2.5% glycerol, 5% DMSO, 200 uM dNTPs (New England BioLabs), 0.01% Tween-20, non-acetylated BSA (Sigma), 500 nM GAPDH Forward primer (5′-GAAGGTGAAGGTCGGAGTC-3′), 500 nM GAPDH Reverse primer (5′-[…]-3′) (Integrated DNA Technologies), 1 U Taq polymerase (Syzygy) modified using a HotStart Polymerase Modification Kit (Biotium, Inc.) and 0.34 uM compound 7. One microliter cDNA was added to each 20 ul reaction. Real time PCR was performed using the RotorGeneQ as described for FIG. 8.
# [6] = test system: CD3e PCR products (WT or single base pair change); assay: High-resolution melt curve analysis (HRM); design: species or system human; conditions: compound 7 (0.07 μM) spiked into EvaGreen Master Mix
# Excerpt: The addition of a small amount of compound 7 to existing real time HRM Master Mixes can improve the resolution of the melting curves leading to higher confidence calls by HRM software. FIGS. 12 and 13 show normalized graphs (12A, 13A) and difference graphs (12B, 13B) from the HRM analysis of PCR products generated from template plasmids containing either a WT copy of CD3e or a version with a single base pair change. The genotype calls of the HRM software are also shown (12C, 13C).
# The data in FIGS. 12 and 13 were collected under the following conditions: PCR reactions were performed as in FIG. 10 with 500 nM CD3e Forward primer (5′-[…]-3′) and […] CD3e Reverse primer (5′-[…]-3′). To each reaction, one microliter of approximately 1×10^6 copies/μl pME-human CD3e-6× His-HA was added, either with a wild type (WT) sequence or with a single nucleotide change (C to T) at base 54 from the start codon of the CD3e sequence. HRM analysis was performed on the RotorGeneQ immediately following template amplification from a temperature range of 76.5-86.5° C. ramping 0.1° C. every two seconds after initial 90 second pre-melt conditioning.
# [7] = 0.5 μM dye concentration, DNA 0.015-2 ng
# [8] = in the presence of dsDNA, 10 mM pH 7.4 Tris buffer, room temperature
structure (smiles),measurement,setting,value
CC(=N)NCc1ccc2c(c1)C(C)(C)C(=CC(C)=CC1=[N+](C)c3ccc(CNC(C)=N)cc3C1(C)C)N2C [Compound 36],emission wavelength,calf thymus dsDNA,~565 nm
same,staining of nuclei of fixed cells,[1],good specificity
same,photostability,[2],high
"CN(C)CCCN(CCCN(C)C)c1cc(C=C2Sc3ccccc3N2C)c2ccccc2[n+]1-c1ccccc1 [PicoGreen, reference compound]",linearity of fluorescence at lower DNA concentrations,calf thymus DNA; [7],lower than that of compound 7
CCCN(CCCNC1=CC(=Cc2sc3cccc4c3[n+]2CCC4)c2ccccc2N1c1ccccc1)C(=N)N [compound 8],staining of nuclei of live cells,live HeLa cells,can specifically stain the nuclei
same,staining of nuclei of fixed cells,[3],can specifically stain the nuclei
CCCN(CCCNC1=CC(=Cc2sc3ccccc3[n+]2C)c2ccccc2N1c1ccccc1)C(=N)N [compound 5],fluorescence upon DNA binding,"calf thymus dsDNA; 10 mM pH 7.4 Tris, with DNA",highly fluorescent
same,absorption maximum,calf thymus dsDNA; [8],~470 nm
same,emission maximum,calf thymus dsDNA; [8],~520 nm
same,DNA amount range of linearity of fluorescence,calf thymus DNA; 1 uM concentration (FIG. 4B),0.05 to 250 ng
same,DNA amount range over which fluorescence is linear,calf thymus DNA; 1 mM dye concentration,0.04 to 250 ng
same,staining of nuclei of live cells,live HeLa cells,can specifically stain the nuclei
same,staining of nuclei of fixed cells,[3],can specifically stain the nuclei
same,quantitation of cell numbers in cell suspensions,Jurkat cells,can be used to quantitate cell numbers
same,quantitation of cell numbers in adherent cell cultures,adherent HeLa cells,can be used to quantitate cell numbers
CCCN(CCCNC1=CC(=Cc2sc3cccc4c3[n+]2CCC4)c2ccccc2N1c1ccccc1)C1=NCCN1 [compound 7],sensitivity (slope of the titration curve) compared to PicoGreen,calf thymus DNA; [7],more sensitive than PicoGreen
same,staining of nuclei of live cells,live HeLa cells,can specifically stain the nuclei
same,staining of nuclei of fixed cells,[3],can specifically stain the nuclei
same,quantitation of cell numbers in cell suspensions,Jurkat cells,can be used to quantitate cell numbers
same,quantitation of cell numbers in adherent cell cultures,adherent HeLa cells,can be used to quantitate cell numbers
same,Ct value (in words),[4],early
same,amplification of target amplicon,[4],efficient amplification
same,endpoint fluorescent signal,[4],high
same,amplification of target amplicon from serial cDNA dilutions,[5],efficient amplification
same,effect on HRM analysis resolution,[6],improves HRM analysis resolution
